Assay results taken from ChEMBL document CHEMBL1201862, “PubChem BioAssay data set” (2004).
Active and inactive are the calls of the source.

How the values were obtained:
[1] = biological target: Long-chain-fatty-acid--AMP ligase FadD28 (Mycobacterium tuberculosis, UniProt P9WQ59); assay: Fluorescence polarization aasay to screen for inhibitors that compete for the binding of FadD28 to a bisubstrate Measured in Biochemical System Using Plate Reader - 2147-01_Inhibitor_Dose_CherryPick_Activity.; type: functional, Mycobacterium tuberculosis H37Rv
Sequence of Long-chain-fatty-acid--AMP ligase FadD28 (P9WQ59 whole entry): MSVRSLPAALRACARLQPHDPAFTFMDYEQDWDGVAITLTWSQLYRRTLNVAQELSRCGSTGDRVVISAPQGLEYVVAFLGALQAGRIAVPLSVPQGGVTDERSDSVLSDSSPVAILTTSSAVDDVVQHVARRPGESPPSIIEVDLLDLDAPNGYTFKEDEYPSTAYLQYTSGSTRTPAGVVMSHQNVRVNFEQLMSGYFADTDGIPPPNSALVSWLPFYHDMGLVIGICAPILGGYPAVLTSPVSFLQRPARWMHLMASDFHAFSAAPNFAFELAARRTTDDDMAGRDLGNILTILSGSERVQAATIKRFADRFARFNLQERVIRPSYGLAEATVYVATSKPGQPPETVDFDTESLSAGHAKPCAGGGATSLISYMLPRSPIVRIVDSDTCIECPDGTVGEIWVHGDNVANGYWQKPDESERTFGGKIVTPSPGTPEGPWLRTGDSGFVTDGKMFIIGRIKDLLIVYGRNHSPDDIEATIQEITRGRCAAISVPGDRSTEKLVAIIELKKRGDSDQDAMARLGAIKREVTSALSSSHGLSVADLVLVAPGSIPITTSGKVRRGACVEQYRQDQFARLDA

[2] = biological target: T1, Corticotropin-releasing factor receptor 2/Corticotropin-releasing factor-binding protein (Homo sapiens, UniProt P24387+Q13324); assay: activators of CRF receptor 2 with binding protein – uHTS hits, confirmation (AID 602473); type: functional; settings: read-out: EC50_Mean
T1 sequence (Q13324 whole entry): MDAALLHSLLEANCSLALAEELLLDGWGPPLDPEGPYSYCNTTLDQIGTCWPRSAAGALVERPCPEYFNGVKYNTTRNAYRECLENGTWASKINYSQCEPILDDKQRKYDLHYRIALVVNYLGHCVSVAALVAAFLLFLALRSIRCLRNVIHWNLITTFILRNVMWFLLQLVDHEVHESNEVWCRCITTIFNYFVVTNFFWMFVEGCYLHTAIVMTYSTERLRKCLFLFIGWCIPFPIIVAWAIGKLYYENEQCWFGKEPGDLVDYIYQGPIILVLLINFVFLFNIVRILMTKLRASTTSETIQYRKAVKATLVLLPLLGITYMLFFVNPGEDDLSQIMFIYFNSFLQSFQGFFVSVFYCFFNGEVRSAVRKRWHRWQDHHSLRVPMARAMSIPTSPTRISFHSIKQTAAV
T1 sequence (P24387 whole entry): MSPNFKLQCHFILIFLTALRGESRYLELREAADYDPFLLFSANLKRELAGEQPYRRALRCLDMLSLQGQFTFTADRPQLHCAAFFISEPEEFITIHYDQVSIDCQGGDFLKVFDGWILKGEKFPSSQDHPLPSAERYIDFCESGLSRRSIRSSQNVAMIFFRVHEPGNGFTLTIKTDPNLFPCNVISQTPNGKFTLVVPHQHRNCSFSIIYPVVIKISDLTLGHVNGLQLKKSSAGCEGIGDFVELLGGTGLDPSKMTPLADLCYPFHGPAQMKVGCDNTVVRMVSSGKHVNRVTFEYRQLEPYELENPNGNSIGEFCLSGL

[3] = biological target: T2, Endoribonuclease toxin MazF (Escherichia coli K-12, UniProt P0AE70); assay: fluorescent RNA oligo signal without MazF, dose response, counter-screen for MazEF activator project, biochemical, fluorescence, single-stranded RNase substrate (AID 588502); type: functional
T2 sequence (P0AE70 whole entry): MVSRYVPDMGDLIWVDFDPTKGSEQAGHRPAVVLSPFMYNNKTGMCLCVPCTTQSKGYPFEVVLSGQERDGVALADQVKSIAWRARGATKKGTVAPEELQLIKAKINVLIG

[4] = biological target: Cytochrome P450 3A4 (Homo sapiens, UniProt P08684);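 also: CYP3A4 tested as one member of a cytochrome P450 panel screen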
Sequence of Cytochrome P450 3A4 (P08684 whole entry): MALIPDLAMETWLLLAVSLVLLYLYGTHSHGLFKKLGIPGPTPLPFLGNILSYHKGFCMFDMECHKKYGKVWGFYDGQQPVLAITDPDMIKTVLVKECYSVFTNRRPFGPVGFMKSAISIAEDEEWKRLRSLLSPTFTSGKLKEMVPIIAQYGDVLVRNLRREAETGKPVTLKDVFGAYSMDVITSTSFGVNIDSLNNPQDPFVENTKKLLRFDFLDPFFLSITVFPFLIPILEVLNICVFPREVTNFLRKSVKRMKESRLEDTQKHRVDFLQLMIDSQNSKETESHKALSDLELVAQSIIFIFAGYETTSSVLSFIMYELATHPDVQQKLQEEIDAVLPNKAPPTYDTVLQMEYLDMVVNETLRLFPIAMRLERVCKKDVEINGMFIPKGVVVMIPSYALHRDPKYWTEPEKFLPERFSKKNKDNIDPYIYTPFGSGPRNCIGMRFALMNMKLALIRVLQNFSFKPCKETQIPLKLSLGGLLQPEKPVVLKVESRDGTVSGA

[5] = biological target: T2, Endoribonuclease toxin MazF; assay: MazF toxin RNase activators, dose response, biochemical, fluorescence, single-stranded RNA substrate, uHTS hits (AID 588481); type: functional
[6] = biological target: Cytochrome P450 2C9 (Homo sapiens, UniProt P11712)
Sequence of Cytochrome P450 2C9 (P11712 whole entry): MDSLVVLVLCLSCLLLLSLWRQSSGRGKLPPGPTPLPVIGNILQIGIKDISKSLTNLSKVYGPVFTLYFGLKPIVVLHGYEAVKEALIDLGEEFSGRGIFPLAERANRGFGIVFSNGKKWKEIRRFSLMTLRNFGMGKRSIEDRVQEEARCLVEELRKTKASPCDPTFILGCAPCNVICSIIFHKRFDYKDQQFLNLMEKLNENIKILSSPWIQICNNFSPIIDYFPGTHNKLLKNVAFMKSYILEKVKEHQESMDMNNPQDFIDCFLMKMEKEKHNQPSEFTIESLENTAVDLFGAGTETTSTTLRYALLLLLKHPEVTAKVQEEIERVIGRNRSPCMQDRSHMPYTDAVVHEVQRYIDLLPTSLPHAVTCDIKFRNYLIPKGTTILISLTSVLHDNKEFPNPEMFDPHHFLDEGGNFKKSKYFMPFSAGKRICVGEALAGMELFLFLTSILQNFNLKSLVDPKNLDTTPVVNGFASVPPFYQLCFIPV

[7] = biological target: T1, Corticotropin-releasing factor receptor 2/Corticotropin-releasing factor-binding protein; assay: Dose Response confirmation of uHTS hits for small molecule antagonists of the CRF-binding protein and CRF-R2 receptor complex.; type: functional; settings: read-out: IC50_Mean
[8] = CRF-BP/CRF-R2 complex antagonists, dose response, cell-based, uHTS hits, 384-well (AID 651639); type: functional, Homo sapiens; settings: read-out: IC50_Mean
[9] = biological target: T3, CAAX prenyl protease 2 (Saccharomyces cerevisiae S288c, UniProt Q03530); type: biochemical
T3 sequence (Q03530 whole entry): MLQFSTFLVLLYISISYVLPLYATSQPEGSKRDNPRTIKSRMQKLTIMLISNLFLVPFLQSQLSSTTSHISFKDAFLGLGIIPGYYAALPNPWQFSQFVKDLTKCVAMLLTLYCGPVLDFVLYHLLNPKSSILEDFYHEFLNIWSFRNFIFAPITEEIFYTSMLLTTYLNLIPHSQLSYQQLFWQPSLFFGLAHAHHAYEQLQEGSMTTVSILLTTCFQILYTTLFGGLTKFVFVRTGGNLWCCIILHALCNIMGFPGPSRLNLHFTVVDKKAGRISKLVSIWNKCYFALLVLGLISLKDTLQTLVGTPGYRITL

[10] = biological target: DNA repair and recombination protein RAD54-like (Homo sapiens, UniProt Q92698); assay: inhibitors of human RAD54 branch migration, confirmation, biochemical, fluorescence, cherry-picked samples, dose series (AID 651657); type: functional
Sequence of DNA repair and recombination protein RAD54-like (Q92698 whole entry): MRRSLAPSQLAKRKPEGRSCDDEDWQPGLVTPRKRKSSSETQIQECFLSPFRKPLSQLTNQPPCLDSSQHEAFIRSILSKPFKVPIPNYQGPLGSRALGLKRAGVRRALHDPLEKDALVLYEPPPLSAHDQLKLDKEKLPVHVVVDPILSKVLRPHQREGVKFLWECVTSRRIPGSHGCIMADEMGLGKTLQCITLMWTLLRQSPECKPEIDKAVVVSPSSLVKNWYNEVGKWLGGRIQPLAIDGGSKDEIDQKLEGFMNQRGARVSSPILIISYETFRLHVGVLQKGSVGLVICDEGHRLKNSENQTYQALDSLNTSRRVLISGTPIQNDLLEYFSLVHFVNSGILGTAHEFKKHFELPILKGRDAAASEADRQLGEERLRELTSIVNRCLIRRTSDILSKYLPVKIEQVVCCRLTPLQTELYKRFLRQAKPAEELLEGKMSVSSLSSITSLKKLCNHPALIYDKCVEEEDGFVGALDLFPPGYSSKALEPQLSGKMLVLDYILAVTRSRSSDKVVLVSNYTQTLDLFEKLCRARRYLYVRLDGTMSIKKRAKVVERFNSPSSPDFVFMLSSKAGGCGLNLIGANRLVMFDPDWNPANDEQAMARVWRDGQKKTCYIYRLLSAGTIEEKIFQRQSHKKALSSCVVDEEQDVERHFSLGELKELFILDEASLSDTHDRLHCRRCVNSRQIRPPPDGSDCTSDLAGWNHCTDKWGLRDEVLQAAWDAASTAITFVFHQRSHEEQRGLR

[11] = biological target: T4, CAAX prenyl protease 2 (Homo sapiens, UniProt Q9Y256); assay: human Rce1 protease inhibitors, dose response, biochemical, yeast membranes, quenched-peptide fluorescence, cherry-pick (AID 588849)
T4 sequence (Q9Y256 whole entry): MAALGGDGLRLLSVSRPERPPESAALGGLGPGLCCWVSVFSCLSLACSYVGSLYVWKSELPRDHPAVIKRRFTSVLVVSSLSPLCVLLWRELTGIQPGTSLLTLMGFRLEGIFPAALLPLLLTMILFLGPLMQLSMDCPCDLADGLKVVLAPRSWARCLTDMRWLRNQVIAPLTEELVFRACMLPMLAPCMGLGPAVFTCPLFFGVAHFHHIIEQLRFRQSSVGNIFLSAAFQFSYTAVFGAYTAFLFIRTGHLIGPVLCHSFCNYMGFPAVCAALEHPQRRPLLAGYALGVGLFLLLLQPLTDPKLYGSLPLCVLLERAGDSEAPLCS

[12] = biological target: Trypsin (Sus scrofa, UniProt P00761); assay: porcine trypsin inhibitors, dose response, selectivity assay for Rce1 protease inhibitor project, biochemical, quenched peptide fluorescence, cherry-pick (AID 488789)
Sequence of Trypsin (P00761 whole entry): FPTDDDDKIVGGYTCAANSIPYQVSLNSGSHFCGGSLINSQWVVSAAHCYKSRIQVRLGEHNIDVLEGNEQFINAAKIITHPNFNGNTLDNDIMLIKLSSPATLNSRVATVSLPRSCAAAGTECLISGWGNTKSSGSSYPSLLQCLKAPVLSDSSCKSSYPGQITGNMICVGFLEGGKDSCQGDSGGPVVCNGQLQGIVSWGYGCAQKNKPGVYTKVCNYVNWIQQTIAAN

[13] = cells; type: functional
[14] = ARNT/TACC3 interaction disruptors, potency, confirmation, biochemical, AlphaScreen, cherry-picked samples (AID 651703); type: functional, Homo sapiens;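 also: His-tagged ARNT PAS-B domain paired with GST-TACC3 E629A dimer coactivator fragment; potency of inhibitors that break up the complex and lower AlphaScreen signal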
[15] = miR-122 activators in hepatoma reporter cells, dose response, cell-based, Huh7 psiCHECK-miR122, Renilla luciferase, cherry-picked (AID 651956); type: functional;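 also: huh7 hepatoma cells stably carrying a psiCHECK-2 miR-122 sensor plasmid; renilla luciferase signal reporting endogenous miR-122 activity after 48 h compound exposure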
[16] = biological target: Glucose-6-phosphate 1-dehydrogenase (Homo sapiens, UniProt P11413); assay: human G6PD enzyme inhibitors, dose response, selectivity assay for P. falciparum G6PD inhibitor project, biochemical, fluorescence (AID 504792); type: functional
Sequence of Glucose-6-phosphate 1-dehydrogenase (P11413 whole entry): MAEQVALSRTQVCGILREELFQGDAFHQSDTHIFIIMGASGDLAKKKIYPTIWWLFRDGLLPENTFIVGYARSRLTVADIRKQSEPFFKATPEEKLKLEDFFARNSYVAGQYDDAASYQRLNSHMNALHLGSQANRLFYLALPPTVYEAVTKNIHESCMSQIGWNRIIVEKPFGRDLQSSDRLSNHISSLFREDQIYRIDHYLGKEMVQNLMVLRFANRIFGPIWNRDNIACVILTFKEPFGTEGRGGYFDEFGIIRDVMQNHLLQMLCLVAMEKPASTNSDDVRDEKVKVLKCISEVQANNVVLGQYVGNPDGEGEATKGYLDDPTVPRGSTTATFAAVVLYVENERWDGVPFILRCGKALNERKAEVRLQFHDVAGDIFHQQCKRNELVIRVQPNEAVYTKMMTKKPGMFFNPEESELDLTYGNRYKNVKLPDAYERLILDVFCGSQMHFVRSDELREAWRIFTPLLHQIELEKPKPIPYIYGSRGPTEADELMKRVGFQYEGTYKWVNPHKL

[17] = biological target: T5, Short transient receptor potential channel 4 (Mus musculus, UniProt Q9QUQ5); assay: mouse TRPC4 channel activators, dose response, cell-based, HEK293 TRPC4/mu-opioid, Fluo-4 calcium (AID 434937); type: functional
T5 sequence (Q9QUQ5 whole entry): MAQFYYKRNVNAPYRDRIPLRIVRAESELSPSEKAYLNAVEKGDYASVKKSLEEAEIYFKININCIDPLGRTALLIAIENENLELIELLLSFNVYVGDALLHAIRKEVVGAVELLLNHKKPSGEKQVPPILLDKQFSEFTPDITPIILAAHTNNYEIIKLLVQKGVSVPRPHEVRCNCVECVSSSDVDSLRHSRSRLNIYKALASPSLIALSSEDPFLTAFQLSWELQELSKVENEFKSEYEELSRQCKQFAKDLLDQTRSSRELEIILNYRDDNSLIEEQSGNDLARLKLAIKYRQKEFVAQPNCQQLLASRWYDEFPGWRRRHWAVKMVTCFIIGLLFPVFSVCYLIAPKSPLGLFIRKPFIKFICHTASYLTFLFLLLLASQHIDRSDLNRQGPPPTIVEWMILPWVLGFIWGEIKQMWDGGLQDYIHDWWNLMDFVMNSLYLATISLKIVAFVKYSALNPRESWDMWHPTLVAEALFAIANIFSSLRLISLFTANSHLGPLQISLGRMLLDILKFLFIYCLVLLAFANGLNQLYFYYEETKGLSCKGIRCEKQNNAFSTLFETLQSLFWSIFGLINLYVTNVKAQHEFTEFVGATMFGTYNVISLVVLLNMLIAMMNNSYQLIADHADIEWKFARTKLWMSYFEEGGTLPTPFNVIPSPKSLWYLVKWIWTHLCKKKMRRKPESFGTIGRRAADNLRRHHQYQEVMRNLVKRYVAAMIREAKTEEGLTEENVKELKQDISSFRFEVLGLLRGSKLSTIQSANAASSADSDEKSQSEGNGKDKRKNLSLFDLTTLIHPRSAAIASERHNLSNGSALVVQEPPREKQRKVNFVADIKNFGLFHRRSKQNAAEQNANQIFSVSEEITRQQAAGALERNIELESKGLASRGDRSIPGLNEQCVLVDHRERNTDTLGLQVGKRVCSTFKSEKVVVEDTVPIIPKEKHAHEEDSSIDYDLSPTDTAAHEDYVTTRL

[18] = biological target: T6, DNA repair protein RAD52 homolog (Homo sapiens, UniProt P43351); type: functional, biochemical
T6 sequence (P43351 whole entry): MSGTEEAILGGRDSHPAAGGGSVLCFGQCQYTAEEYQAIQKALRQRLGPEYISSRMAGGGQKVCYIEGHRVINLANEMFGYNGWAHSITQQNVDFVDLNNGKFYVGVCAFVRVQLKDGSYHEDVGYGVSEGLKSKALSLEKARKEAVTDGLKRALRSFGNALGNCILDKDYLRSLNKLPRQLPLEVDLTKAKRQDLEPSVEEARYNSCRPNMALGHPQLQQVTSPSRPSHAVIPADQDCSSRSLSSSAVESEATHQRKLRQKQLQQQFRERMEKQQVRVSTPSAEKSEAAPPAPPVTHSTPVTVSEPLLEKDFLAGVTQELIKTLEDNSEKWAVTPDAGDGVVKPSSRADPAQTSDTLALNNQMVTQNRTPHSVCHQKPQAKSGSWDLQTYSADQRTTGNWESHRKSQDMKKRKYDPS

[19] = biological target: Genome polyprotein (dengue virus type 2, UniProt P29990); assay: Dengue-2 NS5 methyltransferase inhibitors, primary screen, biochemical, confirmation dose response (AID 588689); type: functional
Sequence of Genome polyprotein (P29990 2492-3391 limits assumed): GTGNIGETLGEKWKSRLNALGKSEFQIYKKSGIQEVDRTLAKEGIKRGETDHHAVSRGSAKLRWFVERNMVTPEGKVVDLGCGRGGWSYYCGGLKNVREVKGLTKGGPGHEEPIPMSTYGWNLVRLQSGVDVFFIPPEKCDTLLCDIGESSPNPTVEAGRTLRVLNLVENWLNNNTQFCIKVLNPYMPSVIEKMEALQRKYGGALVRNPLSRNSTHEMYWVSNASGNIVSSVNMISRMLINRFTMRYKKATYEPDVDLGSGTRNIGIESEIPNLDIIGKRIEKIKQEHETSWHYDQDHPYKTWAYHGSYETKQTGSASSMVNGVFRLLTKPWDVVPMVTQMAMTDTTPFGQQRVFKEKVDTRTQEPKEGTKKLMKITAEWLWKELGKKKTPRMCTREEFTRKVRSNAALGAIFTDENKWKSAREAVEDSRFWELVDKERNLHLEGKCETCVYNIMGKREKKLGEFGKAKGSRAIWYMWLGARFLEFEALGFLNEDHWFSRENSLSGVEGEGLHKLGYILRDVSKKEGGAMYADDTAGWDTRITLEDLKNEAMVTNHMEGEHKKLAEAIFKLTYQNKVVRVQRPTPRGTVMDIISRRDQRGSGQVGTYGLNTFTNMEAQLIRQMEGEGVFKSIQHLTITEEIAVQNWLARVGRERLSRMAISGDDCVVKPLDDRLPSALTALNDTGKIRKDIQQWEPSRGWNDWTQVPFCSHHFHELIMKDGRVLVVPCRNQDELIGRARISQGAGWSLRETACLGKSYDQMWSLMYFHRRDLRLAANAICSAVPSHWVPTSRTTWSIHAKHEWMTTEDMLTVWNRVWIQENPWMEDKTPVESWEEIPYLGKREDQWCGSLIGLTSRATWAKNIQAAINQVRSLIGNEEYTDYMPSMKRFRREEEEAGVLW

[20] = tested on: Vero; assay: Vero cell cytotoxicity, cytotoxicity control for flavivirus capping enzyme inhibitors (AID 588742); type: functional; settings: Chlorocebus sabaeus
[21] = biological target: T7, Apoptotic protease-activating factor 1 (Homo sapiens, UniProt O14727); type: functional
T7 sequence (O14727 whole entry): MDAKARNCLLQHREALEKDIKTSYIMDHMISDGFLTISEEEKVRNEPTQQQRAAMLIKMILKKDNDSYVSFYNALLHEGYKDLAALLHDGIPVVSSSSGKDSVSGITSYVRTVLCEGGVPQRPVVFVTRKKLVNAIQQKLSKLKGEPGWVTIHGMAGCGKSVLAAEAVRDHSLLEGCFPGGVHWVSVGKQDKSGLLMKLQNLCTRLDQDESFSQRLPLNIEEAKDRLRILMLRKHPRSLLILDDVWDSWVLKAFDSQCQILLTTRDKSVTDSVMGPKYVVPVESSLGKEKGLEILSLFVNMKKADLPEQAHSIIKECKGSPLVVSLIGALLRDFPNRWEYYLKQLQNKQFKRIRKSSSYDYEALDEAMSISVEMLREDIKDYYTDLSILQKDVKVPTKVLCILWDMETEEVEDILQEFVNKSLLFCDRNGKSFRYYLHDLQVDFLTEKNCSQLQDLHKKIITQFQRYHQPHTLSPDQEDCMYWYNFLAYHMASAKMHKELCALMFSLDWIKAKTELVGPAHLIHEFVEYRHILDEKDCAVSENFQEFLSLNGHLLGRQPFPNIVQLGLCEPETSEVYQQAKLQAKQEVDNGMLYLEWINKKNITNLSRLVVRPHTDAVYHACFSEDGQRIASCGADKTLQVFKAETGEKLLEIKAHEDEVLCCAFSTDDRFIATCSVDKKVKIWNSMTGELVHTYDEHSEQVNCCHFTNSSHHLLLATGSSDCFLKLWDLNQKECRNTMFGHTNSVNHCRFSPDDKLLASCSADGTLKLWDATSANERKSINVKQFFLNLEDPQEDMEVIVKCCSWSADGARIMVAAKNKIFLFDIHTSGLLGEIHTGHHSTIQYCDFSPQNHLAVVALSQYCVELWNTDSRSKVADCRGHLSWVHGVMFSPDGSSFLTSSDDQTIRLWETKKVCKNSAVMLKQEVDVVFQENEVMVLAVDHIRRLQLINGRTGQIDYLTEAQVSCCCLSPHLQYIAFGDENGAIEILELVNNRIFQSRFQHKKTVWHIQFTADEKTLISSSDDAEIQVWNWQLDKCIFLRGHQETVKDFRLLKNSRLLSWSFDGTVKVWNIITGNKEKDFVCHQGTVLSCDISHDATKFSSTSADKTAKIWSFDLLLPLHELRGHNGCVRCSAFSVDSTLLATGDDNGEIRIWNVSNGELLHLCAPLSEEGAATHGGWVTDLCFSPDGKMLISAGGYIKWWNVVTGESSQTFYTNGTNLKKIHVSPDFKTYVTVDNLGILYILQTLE

## CC1=Nc2ccccc2/C1=C\c1nc(-c2ccc(C(F)(F)F)cc2)oc1O
[1]
  AC50: > 100 µM (inactive)
[2]
  EC50: 10.2 µM (active)
[3]
  EC50: > 99 µM (inactive)
[4]
  AC50: 28.2 µM (inconclusive)
[5]
  EC50: > 99 µM (inactive)
[6]
  AC50: 12.6 µM (inconclusive)

## COc1ccc(C2CCCN2C(=O)Nc2ccc(C)c(C)c2)cc1OC (configuration not stated)
[2]
  EC50: > 53 µM (inactive)
[7]
  IC50: 42.4 µM (active)
[8]
  IC50: > 20 µM (inactive)

## COc1ccc2c(c1)c1ncn(CCN3CCCCC3)c(=O)c1n2C
[9]
  AC50: 13.9 µM (active)
[10]
  AC50: 35 µM (active)
[11]
  AC50: 4.82 µM (active)
[12]
  AC50: 13.1 µM (active)

## COCCn1c(C)cc(C(=O)COC(=O)c2ccc([N+](=O)[O-])o2)c1C
[13]
  IC50: < 0.1 µM (active)
[14]
  AC50: 117 µM (active)

## COc1ccc(S(=O)(=O)N(C)C[C@@H]2Oc3ncc(/C=C/c4ccccc4)cc3C(=O)N([C@@H](C)CO)C[C@@H]2C)cc1
[15]
  AC50: 2.03 µM (active)

## COc1ccc(Cl)cc1NC(=O)c1cccc([N+](=O)[O-])c1O
[16]
  IC50: 46.5 µM (inactive)
[2]
  EC50: > 53 µM (inactive)
[7]
  IC50: 2.55 µM (active)
[8]
  IC50: 8.13 µM (active)

## CCCN(CCC)CCCNC(=O)c1cc2c(-c3ccc(OC)c(OC)c3)nn(C)c2s1
[17]
  EC50: 0.531 µM (active)
[18]
  AC50: 3.41 µM (active)
[10]
  AC50: 9.65 µM (active)

## Cc1coc2c1C(=O)C(=O)c1c-2ccc2c1CCCC2(C)C [TANSHINONE IIA]
[1]
  AC50: 88.9 µM (active)
[19]
  IC50: > 100 µM (active)
[20]
  CC50: 9.09 µM (active)
[21]
  IC50: 4.82 µM (active)
